{"source": "patent US20070032477A1", "about": "“Pteridine derivatives useful for making pharmaceutical compositions” (priority 2003, published 2007)", "key": {"[1]": {"test_system": "TNBS-induced colitis in C57 BL/6 male mice", "assay": "Trinitrobenzenesulfonate-induced colitis test in mice (Example 210)", "assay_type": "in vivo", "experimental": "C57 BL/6 male mice (4-5 weeks) were obtained from M&B (Denmark), bred under standard pathogen-free conditions and maintained in the certified animal facility of the University Hospital Gasthuisberg, Catholic University of Leuven (Leuven, Belgium). Experiments were approved by the local Ethical Committee of Animal Experimentation. Colitis was induced by rectal administration of 1 mg trinitrobenzenesulphonate (hereinafter referred as TNBS) in 50% ethanol with 2 times pre-sensitization. Briefly, mice were sensitized twice 10 days and 5 days before challenge. For sensitization, a 2×2 cm field of the abdominal skin was shaved, and 100 μl of 5 mg TNBS in 50% ethanol solution was applied. On the day of challenge, mice were first lightly anesthetized with metofane, subsequently TNBS was administered per rectum via a round-tip needle equipped with a 1-ml syringe. The tip of the needle was inserted so that the tip was 3.5 to 4 cm proximal to the anal verge and TNBS was injected with a total volume of 100 μl. To ensure distribution of TNBS within the entire colon and cecum, mice were held in a vertical position for 1 minute after the injection.\nThe compound of example 17 (2-amino-4-[(N-phenoxyacetyl)-piperazin-1-yl]-6-(3,4-dimethoxy-phenyl)pteridine) was given by daily intra-peritoneal injection at the dose of 20 mg/kg (400 μg dissolved in 100 μl PBS with 10% DMSO). Control mice were treated with vehicle only. Body weights of all animals were recorded daily in order to follow the development of inflammatory colitis over a period of 10 days.\nBoth macroscopic and microscopic histology evaluations were performed as follows. Briefly, mice were sacrificed at day 2 by cervical […], the colon was excised and was immediately examined visually, and damage was scored on a 0-12 scale, as described previously by Shen et al. in Int. Immunopharmacol. (2004), 4:939-951. Colon sections were then fixed in 6% formalin and embedded in paraffin, cut into sections, and then stained with hematoxylin and eosin. Stained sections were examined for evidence of colitis using as criteria the presence of cell infiltration, elongation and/or distortion of crypts, crypt abscesses, reduction in goblet cell number, frank ulceration, and edema formation.\nMyeloperoxidase (MPO) activity was measured as described previously by Shen et al. (cited supra). Briefly, two days after intracolonic injection of TNBS, 50 mg colon was removed, homogenised and sonicated on ice. Samples were frozen in liquid nitrogen and subsequently thawed in a water bath at 37° C., each step lasted 3 minutes and the procedure was repeated for two cycles. After centrifugation an aliquot of the supernatant was then allowed to react with a solution of tetra-methyl-benzidine (1.6 mM) and 0.1 mM H2O2. The rate of change in absorbance was measured spectrophotometrically at 460 nm. MPO activity was defined as the quantity of enzyme degrading 1 μmol of peroxide/minute at 37° C. and was expressed in units per gram weight of wet tissue. Sample enzyme activity was measured from a standard curve of known MPO unit activity (assay sensitivity 5×10^−7 units per well).\nSerum levels of antibodies generated against TNBS were measured in the mouse sera on the 10th day after disease induction by enzyme-linked immunosorbent assay (ELISA). The ELISA method used herein is as reported in detail by Shen et al (cited supra).\nQuantitative Reverse Transcriptase (RT)-PCR for cytokine mRNA was performed as follows: part of the colon removed on day 2 after TNBS application was immediately frozen in liquid nitrogen after dissection and stored at −70° C. until extraction of total RNA using the method of Shen et al (cited supra). A constant amount of 1 μg of total RNA was used for oligo-(dT)-primed cDNA synthesis (Ready-to-go-kit, Pharmacia, Uppsala, Sweden). After 90 minutes at 37° C., the reverse transcriptase was inactivated by incubating the cDNA samples for 5 minutes at 95° C. […]"}, "[2]": {"test_system": "TNF-α induced shock in C57BL/6 male mice", "assay": "Protection against a lethal dose of TNF-α", "assay_type": "in vivo", "experimental": "A model of TNF-α induced shock in C57BL/6 male mice was performed as follows. Five animals from the control group received an intravenous administration of a lethal dose of TNF-α (10 μg) in the tail. Ten animals from the test group received three intraperitoneous injections of the pteridine derivative of example 17 (20 mg/kg/day) respectively 48 hours, 24 hours and immediately before an intravenous injection of TNF-α (10 μg).\nFurthermore, all five mice from the control group died within 40 hours, the survival rate (80%) of mice that received the pteridine derivative of example 17 in addition to the TNF-α dose (10 μg) was quite substantial."}}, "data": [{"smiles": "COc1ccc(-c2cnc3nc(N)nc(N4CCN(C(=O)COc5ccccc5)CC4)c3n2)cc1OC", "note": "[Example 17, 2-amino-4-[(N-phenoxyacetyl)-piperazin-1-yl]-6-(3,4-dimethoxy-phenyl)pteridine]", "values": [{"measurement": "days required to recover original body weight", "setting": "[1]; daily i.p. 20 mg/kg", "result": 6, "unit": "days"}, {"measurement": "microscopic score", "setting": "[1]; daily i.p. 20 mg/kg, day 2", "result": "6.0±0.7"}, {"measurement": "average macroscopic score", "setting": "[1]; daily i.p. 20 mg/kg, day 2, 0-12 scale", "result": "6.3±0.7"}, {"measurement": "MPO activity in colon", "setting": "[1]; daily i.p. 20 mg/kg, two days after TNBS", "result": "8.9±2.0", "unit": "U/g"}, {"measurement": "reduction in average macroscopic score", "setting": "[1]; daily i.p. 20 mg/kg, versus control mice", "result": 30, "unit": "%"}, {"measurement": "cytokine mRNA levels for TNF-α, IL-18 and IFN-γ in colon", "setting": "[1]; day 2, differences did not reach statistical significance", "result": "all reduced"}, {"measurement": "Anti-TNBS antibody (IgG2a) levels", "setting": "[1]; serum, after treatment", "result": "76.6±3.3", "unit": "OD"}, {"measurement": "Anti-TNBS antibody (IgG1) levels", "setting": "[1]; serum, compared to untreated mice", "result": "significantly lower"}, {"measurement": "survival rate", "setting": "[2]; TNF-α 10 μg i.v., 20 mg/kg/day i.p. three injections, within 40 hours", "result": 80, "unit": "%"}, {"measurement": "body temperature", "setting": "[2]; followed for 40 hours, 20 mg/kg/day i.p. 48 h, 24 h and immediately before TNF-α 10 μg i.v.", "result": "body temperature of control mice dropped significantly when compared to mice receiving the test compound"}]}]}
